Measurements: USRE39138E1, “Monoclonal antibody specific for advanced glycosylation endproducts in biological samples” (Alteon Incorporated, priority 1994, dated 2006)

What was measured:
Hb-AGE = settings: diabetic patients treated for 28 days; cited from earlier work
mAb 4G9 = assay: competition ELISA: browned compounds compete with plate-bound BSA-AGE for mAb 4G9; format: binding, murine; settings: concentration based on the original proteins or peptides
Description: Production of AGE proteins. All proteins and peptides were browned with glucose, ribose or glucose 6-phosphate in 300 mM sodium phosphate buffer, pH 7.4, for 8-12 weeks at 37° C. The control proteins were treated the same way except the sugars were omitted.
The competition ELISA was performed by pre-coating microtiter plates with BSA-AGE and blocking with Assay Buffer. The plates was washed and mAb 4G9 and increasing concentrations of the competitors listed in Table 1 were added and simultaneously incubated for 1 hr at 37° C. The unbound materials were removed by extensive washing and the bound mAb was detected with alkaline phosphatase labeled anti-mouse antibodies similar to direct ELISA. All washes were in TBS-T wash solution: all incubations proceeded for 1 hr at 37° C.

[1] = protein or peptide browned with ribose

Row | IC50 (mAb 4G9; protein or peptide browned with glucose) | IC50 (mAb 4G9; [1]) | Molecule | levels of Hb-AGE at the end of the treatment period (Hb-AGE)
1 | – | – | N=C(N)NN [aminoguanidine] | significantly decreased
2 | 250 µM | 50 µM | Arg-lys | –
3 | – | 200 µM | Hemoglobin | –
